Test results taken from patent publication US8937056B2, “Multikinase inhibitors for use in the treatment of cancer” (Eisai R&D Management Co., Ltd., priority 2007, dated 2015).
Like-named read-outs stand apart in the source and are kept apart here.

Columns and labels:
MEK1 = MEK1 (Homo sapiens, UniProt Q02750); assay: Biochemical MEK1 assay (ELISA, ERK2-coated plate); conditions: 1 μmol/L ATP
Experimental: A biochemical MEK1 assay was carried out to investigate whether compounds of formula (I) or (II), e.g., compounds 029, 091, 106 and 114 are MEK1 inhibitors. Biochemical MEK1 inhibition of the compounds was assessed using an ELISA assay. All assays were performed in a 96 well format. A plate coated with ERK2, a substrate protein for MEK1 was used for biochemical MEK1 assay. In a final volume of 40 μL, MEK1 (25 ng) was incubated with 50 mmol/L HEPES, 20 mmol/L MgCl2, 4 mmol/L MnCl2, and 0.5 mmol/L Na3VO4 in the absence or presence of the test compounds. The reaction was initiated by the addition of 1 μmol/L ATP. After incubation for 40 minutes at 30° C., the reaction mixture was discarded and the plate was then washed 4 times with 0.05% Tween20/PBS. Each well was incubated with 100 μL of 1:4000 diluted phospho-ERK1/2 monoclonal antibody (Cell Signaling, MA) for 1.5 hours at room temperature. The antibody was then discarded and the plate was washed 6 times with 0.05% Tween20/PBS. Finally, 100 μL of 1:2000 diluted of HRP conjugated anti-mouse IgG antibody (Cell Signaling, MA) was added. After incubation for 90 minutes, this antibody was discarded and the plate was washed 8 times with 0.05% Tween20/PBS. Phosphorylated ERK2 was then visualized by peroxidase reaction, and read at 450 nm. FIG. 2A is a table depicting results from MEK1 assays.

[1] = test system: Cell lines which carried a B-RAF V600E mutation; assay: Cell growth inhibition in solid cancer cell lines (CellTiter-Glo or methylene blue); assay type: cell-based; conditions: 96 hours, B-RAF V600E mutated cell lines very sensitive
Experimental: Compounds 091 and 106, were extensively tested in solid cancer cell lines (shown in FIG. 3 for 18 cell lines for compound 091 and 20 cell lines for compound 106). […] Cell growth was assessed using a CellTiter-Glo® Luminescent Cell Viability Assay (Promega) or a methylene blue assay.

Flt-3 receptor = assay: Phosphorylation of Flt-3 receptor in MV-4-11 cells (immunoblot); assay type: cell-based, human; conditions: 24 h
Experimental: A study was carried out to investigate the ability of compound 106 to inhibit phosphorylation of Flt-3 receptor in a FLT3-mutated (AML) cell line in vitro. MV-4-11 human acute myeloid leukemia (AML) cells (Catalog #CRL-9591, ATCC, Rockville, Md.), which carry an activation mutation of Flt-3, were plated into a […] flasks and incubated for 1 day. Then, compound 106 at concentrations of 0.1 nmol/L-300 nmol/L (or culture medium) were added to each flask and cultured for 24 h. The control dish received cultured medium alone. Cells lysates were prepared using ice cold lysis buffer. In order to detect phospho-Flt-3 protein, MV-4-11 cell lysate proteins were subjected to SDS-PAGE under reducing conditions and immunoblotted with an antibody against phospho-Flt-3 antibody (Catalog #3464, Cell Signaling Technology, Danvers, Mass.). Western blots were probed with secondary IRDye antibodies (LI-COR, Inc., Lincoln, Nebr.). Blotted proteins were visualized using the Odyssey infrared imaging system (LI-COR, Inc., Lincoln, Nebr.). Anti-actin antibody (Catalog #sc-8432, Santa Cruz Biotechnologies, Inc., Santa Cruz, Calif.) was used as a loading control.

[2] = test system: LOX human melanoma xenografts; assay: In vivo antitumor activity in LOX xenografts; design: species or system mice
Experimental: A study was carried out to investigate anticancer activity of compounds 091 and 106 in human LOX BRAF mutated melanoma xenografts. The compounds were evaluated against subcutaneous-implanted LOX human melanoma xenografts in female athymic mice.
The human melanoma cell line, LOX which has B-RAF (V600E) mutation was transplanted subcutaneously into female nude mice. The experiment consisted of 8 mice per group on the first day of treatment. Compounds were independently administered intravenously for two weekly rounds of five daily injections (q1d×5) with a two-day rest period between the rounds. Compounds were administered in a vehicle volume of 0.1 mL/10 g of body weight.
The general health of the mice was monitored daily. Tumor dimensions and body weights were recorded twice a week starting on the first day of treatment. Tumor weights were calculated using the equation (l×w^2)/2, where 1 and w refer to the larger and smaller dimensions collected at each measurement. When the mean tumor volume reached 128 mm^3, vehicle (cremophor:ethanol:5% glucose; 1:1:8) or one of the test compounds (10, 20, 30, or 40 mg/kg) was administered to mice (8/group).

[3] = test system: PANC-1 pancreatic cancer cells; assay: PANC-1 cell growth, alone or in combination with SN-38 (CellTiter-Glo)
Experimental: To determine whether compounds 091 or 106 in combination with SN-38 would enhance the anticancer activity of chemotherapy due to MEKK1 inhibition, PANC-1 human pancreatic cancer cells were examined.
Antiproliferative effects of SN-38 were evaluated in PANC-1 pancreatic cancer cells in combination with compound 091 or 106. Cultured human cancer cells were placed into 96-well plates and grown in the absence or continuous presence of 0.03-1000 nM SN-38 for 96 h with or without 1 μM of test compound. Cell growth was assessed using CellTiter-Glo® Luminescent Cell Viability Assay (Promega). IC50 values were determined as the concentration of a substance which inhibits cell growth by 50% compared to untreated cell populations.

[4] = test system: Colo205 human colon cancer xenografts; assay: In vivo antitumor activity in Colo205 xenografts; design: species or system mice; conditions: similar study with a different dosing schedule
Experimental: A study was carried out to investigate anticancer activity of compounds 091 and 106 in human Colo205 BRAF mutated colon cancer xenografts. The compounds were evaluated against subcutaneous-implanted Colo205 human colon cancer xenografts in female athymic mice.
The human colon cancer cell line, Colo205 which has B-RAF (V600E) mutation was transplanted subcutaneously into female nude mice. The experiment consisted of 6 mice per group on the first day of treatment. The compound was administered intravenously for two weekly rounds of five daily injections (q1d×5) with a two-day rest period between the rounds. Compound 091 was administered in a vehicle volume of 0.1 mL/10 g of body weight.
The general health of the mice was monitored daily. Tumor dimensions and body weights were recorded twice a week starting on the first day of treatment. Tumor weights were calculated using the equation (l×w^2)/2, where 1 and w refer to the larger and smaller dimensions collected at each measurement. When the mean tumor volume reached 140 mm^3, vehicle (cremophor:ethanol:5% glucose; 1:1:8) or the test compound (30 mg/kg) was administered to mice (6/group).

[5] = test system: human hematologic cancer cell lines; assay: Antiproliferative effects in hematologic cancer cell lines (MTT assay); assay type: cell-based; conditions: cell lines derived from leukemia, or B-cells such non-Hodgkin's lymphoma, 96 h
Experimental: A study was carried out to investigate anticancer activity of compounds 091 and 106 in a panel of human hematologic cancer cell lines in vitro. Antiproliferative effects of compounds 091 and 106 were evaluated in 7 human cancer cell lines representing several different cancer types of hematologic malignancy. […] Cell growth was assessed using the MTT assay.

MV-4-11 AML cells = assay: MV-4-11 cell proliferation assay (CellTiter-Glo); assay type: cell-based, human; conditions: 96 h
Experimental: A study was carried out to investigate the anticancer activity of compound 106 in a FLT-3 mutated (AML) cell line in vitro. The antiproliferative effects of compound 106 were determined in a cell proliferation assay using MV-4-11 AML cells. […] Luminescence was read on the EnVision 2102 Multilabel Counter (Perkin-Elmer/Wallac, Waltham, Mass.). The software, Graphpad Prism (ver. 4, San Diego, Calif.) was used for determination of IC50 values. The raw value for the untreated control represents an average from 4 wells.

Map/Erk kinase (MEK) = conditions: cited from earlier work

MEK1, sequence (Q02750 whole entry): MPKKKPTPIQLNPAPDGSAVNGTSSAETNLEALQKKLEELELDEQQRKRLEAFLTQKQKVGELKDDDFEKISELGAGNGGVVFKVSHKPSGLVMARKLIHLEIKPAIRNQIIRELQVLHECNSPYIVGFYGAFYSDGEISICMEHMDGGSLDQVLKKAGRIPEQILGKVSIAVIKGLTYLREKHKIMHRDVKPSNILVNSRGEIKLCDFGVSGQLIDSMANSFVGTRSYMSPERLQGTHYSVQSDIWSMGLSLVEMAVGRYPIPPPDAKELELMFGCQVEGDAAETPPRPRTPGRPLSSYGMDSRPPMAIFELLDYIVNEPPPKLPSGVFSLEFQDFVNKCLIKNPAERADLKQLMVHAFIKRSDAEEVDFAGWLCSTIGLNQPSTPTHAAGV

CCNc1cc(O)c2c(c1)/C=C/C[C@H](O)[C@H](O)C(=O)/C=C\[C@@H](C)[C@H](C)OC2=O [Compound 106]
MEK1 inhibitory activity (MEK1): low nM activity
cell growth inhibition, concentration range of sensitivity [1]: low-nM or sub-μM
constitutive phosphorylation of Flt-3 receptor (Flt-3 receptor; 10 nmol/L): completely inhibited
protein level of phospho-Flt-3 (Flt-3 receptor; 0.1-300 nmol/L, concentration dependent): decreased
mice tumor free at the end of study ([2]; 10 mg/kg): 5 out of 8
mice tumor free at the end of study ([2]; 20 mg/kg): 8 out of 8
mice tumor free at the end of study ([2]; 40 mg/kg): 8 out of 8
anticancer activity ([2]; three dosages, 10, 20, and 40 mg/kg/dose): statistically significant anticancer activity
effect on PANC-1 cancer cell growth, compound alone ([3]; 1 μM alone, separate experiments (data not shown)): did not affect
tumor regression from the first day of treatment [4]: 70%
sensitivity of cell growth [5]: sensitive
IC50, antiproliferative activity (MV-4-11 AML cells): low-nmol/L

COc1cc(O)c2c(c1)/C=C/C[C@H](O)[C@H](O)C(=O)/C=C\C[C@H](C)OC2=O [Compound F152]
inhibition of MEK (Map/Erk kinase (MEK)): inhibit

CCc1c2c(nc3ccc(O)cc13)-c1cc3c(c(=O)n1C2)COC(=O)[C@]3(O)CC [SN-38, reference compound]
IC50 ([3]; read-out: IC50 for cell growth inhibition in combination setting, SN-38 with 1 μM of compound 091 or compound 106, 96 h): 16.2 nM
IC50 ([3]; read-out: IC50 for cell growth inhibition, SN-38 alone, 96 h): 82.5 nM
